Measurements from patent US10414811B2, “Protease-resistant lipidated GLP-1 analogs” (MEDIMMUNE LIMITED, priority 2015, dated 2019).
Where two headings read alike, the source gives them in different places. Numbered stars: 1 amine (or outer) side, 2 acyl side, 3 side chain; on linkers, the order of the positions; unused ones are H or OH. Square brackets hold non-standard residues; d marks the D form. Side chains are listed from the residue outwards. Peptide text beside a SMILES is read from it. * marks the point of attachment. C18 diacid = O=C(O)CCCCCCCCCCCCCCCCC(=O)*; γGlu = O=C(O)[C@H](CCC(=O)[*:2])N[*:1]; αMeF = C[C@](N)(Cc1ccccc1)C(=O)O; αMeK = C[C@](N)(CCCCN)C(=O)O; αMeS = C[C@](N)(CO)C(=O)O; AEEA = NCCOCCOCC(=O)O; Aib = CC(C)(N)C(=O)O

Tests used:
[1] = target: T1, human GLP-1 receptor (GLP-1R) (Homo sapiens, UniProt P43220); assay: cAMP assay, human GLP-1R cells; type: cell-based
T1 construct: expressed in transfected cells
T1 sequence (P43220 24-463): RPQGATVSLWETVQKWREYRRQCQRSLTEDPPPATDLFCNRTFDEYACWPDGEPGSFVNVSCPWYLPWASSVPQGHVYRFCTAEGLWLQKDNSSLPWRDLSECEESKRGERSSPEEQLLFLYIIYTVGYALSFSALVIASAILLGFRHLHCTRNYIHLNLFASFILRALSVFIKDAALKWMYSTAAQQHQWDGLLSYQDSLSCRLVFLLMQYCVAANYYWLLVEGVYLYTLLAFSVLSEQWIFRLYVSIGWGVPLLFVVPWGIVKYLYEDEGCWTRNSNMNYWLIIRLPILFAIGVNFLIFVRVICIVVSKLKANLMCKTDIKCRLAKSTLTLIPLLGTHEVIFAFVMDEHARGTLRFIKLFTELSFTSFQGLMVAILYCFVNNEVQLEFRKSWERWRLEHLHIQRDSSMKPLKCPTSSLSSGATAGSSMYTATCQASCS
In short: (§1)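 Peptide-stimulated cAMP measured by two-step HTRF after a 30 min room-temperature incubation with receptor-expressing cells (hGLP-1R, hGIPR at 1×10^5 cells/ml; hGCGR at 2×10^5 cells/ml). Duplicate dilutions; EC50 from 4-parameter logistic fit of % Delta F.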

[2] = target: T2, human glucagon receptor (GCGR) (Homo sapiens, UniProt P47871); assay: cAMP assay, human GCGR cells; type: cell-based; details: cAMP assay
T2 construct: expressed in transfected cells
T2 sequence (P47871 26-477): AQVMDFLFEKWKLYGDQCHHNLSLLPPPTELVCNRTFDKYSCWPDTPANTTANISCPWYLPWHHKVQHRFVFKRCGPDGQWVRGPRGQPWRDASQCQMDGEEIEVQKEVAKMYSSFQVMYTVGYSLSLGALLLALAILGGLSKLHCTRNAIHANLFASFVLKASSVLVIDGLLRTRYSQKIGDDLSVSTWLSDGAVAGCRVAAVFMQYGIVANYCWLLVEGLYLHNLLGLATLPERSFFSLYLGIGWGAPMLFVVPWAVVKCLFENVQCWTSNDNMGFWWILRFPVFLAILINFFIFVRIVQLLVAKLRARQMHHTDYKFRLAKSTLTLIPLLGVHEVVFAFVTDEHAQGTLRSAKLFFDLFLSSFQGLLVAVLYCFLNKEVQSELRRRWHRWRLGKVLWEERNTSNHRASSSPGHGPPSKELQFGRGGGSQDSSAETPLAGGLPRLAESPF
In short: as §1

[3] = target: T3, Neprilysin (Homo sapiens, UniProt P08473); assay: Proteolytic resistance to neprilysin (% remaining peptide, RP-HPLC AUC); type: in vitro ADME; details: 37° C., pH 8.3; for remaining at 0.5 h / remaining at 1 h / remaining at 2 h / remaining at 4 h / remaining at 8 h / remaining at 24 h: recombinant neprilysin; for remaining at 0.5 h: t = 30 min; for remaining at 1 h: t = 1 hr; for remaining at 2 h: t = 2 hr; for remaining at 4 h: t = 4 hr; for remaining at 8 h: t = 8 hr; for remaining at 24 h: t = 24 hr, read-out: Percentage remaining peptide (AUC at specified time-point by RP-HPLC) upon incubation with neprilysin, t = 24 hr
T3 construct: purchased R&D Systems 1182-ZNC-010
T3 sequence (P08473 whole entry): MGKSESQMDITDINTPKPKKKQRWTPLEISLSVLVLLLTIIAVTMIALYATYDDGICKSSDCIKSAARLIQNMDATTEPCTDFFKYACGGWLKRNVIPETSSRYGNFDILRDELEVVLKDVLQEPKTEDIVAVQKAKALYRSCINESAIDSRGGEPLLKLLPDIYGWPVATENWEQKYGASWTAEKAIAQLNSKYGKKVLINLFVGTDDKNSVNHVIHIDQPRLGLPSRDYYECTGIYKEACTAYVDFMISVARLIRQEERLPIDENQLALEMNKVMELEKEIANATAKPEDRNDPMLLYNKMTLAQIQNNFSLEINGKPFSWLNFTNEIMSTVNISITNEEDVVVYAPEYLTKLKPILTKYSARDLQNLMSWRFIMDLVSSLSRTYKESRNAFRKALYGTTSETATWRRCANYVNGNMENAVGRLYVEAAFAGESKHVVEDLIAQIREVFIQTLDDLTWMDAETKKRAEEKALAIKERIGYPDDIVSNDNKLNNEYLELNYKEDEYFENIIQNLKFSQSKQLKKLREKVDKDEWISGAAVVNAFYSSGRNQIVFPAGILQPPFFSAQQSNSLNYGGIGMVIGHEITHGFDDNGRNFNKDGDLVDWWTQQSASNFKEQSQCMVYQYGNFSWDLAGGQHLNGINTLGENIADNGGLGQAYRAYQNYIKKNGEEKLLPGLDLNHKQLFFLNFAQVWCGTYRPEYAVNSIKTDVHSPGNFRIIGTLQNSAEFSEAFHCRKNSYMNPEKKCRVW
Description: Ratio enzyme (units):peptide (μmoles)˜1:33. […] Ratio enzyme (units):peptide (μmoles)˜1:2.5.
15 μL aliquots (˜15 μg initial peptide) of the peptide-enzyme mixture were periodically withdrawn (t=0, 30 mins, 1 hr, 2 hr, 4 hr, 8 hr, 24 hr) and quenched immediately by addition to an equal volume (15 μL) of 5% TFA (v/v) in 1:1 water/acetonitrile to arrest proteolytic activity. 20 μL aliquots (˜10 μg initial peptide) were analyzed by LC/MS and/or analytical RP-HPLC as follows: LC/MS method: Agilent Polaris C8-A column (4.6×100 mm, 3 micron) eluted with a linear binary gradient of 10-90% MeCN (0.1% TFA v/v) in water (0.1% TFA v/v) over 30 mins at 1.5 mL min-1 at ambient temperature with detection by both UV absorption at 210 nm and ionization using a Waters 3100 mass detector (ESI+ mode). Peptide fragments deriving from enzymatic hydrolysis were identified by molecular weight, allowing location of the site of cleavage. Analytical RP-HPLC method: Agilent Polaris C8-A column (4.6×100 mm, 3 micron) eluted with a linear binary gradient of 10-90% MeCN (0.1% TFA v/v) in water (0.1% TFA v/v) over either 10 or 15 mins at 1.5 mL min^−1 at 40° C. with detection by UV absorption at 210 nm. Manual integration (AUC) allowed estimation of remaining intact peptide over the time course of the experiment.
25 μL aliquots (˜6 μg initial peptide) were analyzed by LC/MS and/or analytical RP-HPLC as follows: LC/MS method: Agilent Polaris C8-A column (4.6×100 mm, 3 micron) eluted with a linear binary gradient of 10-90% MeCN (0.1% TFA v/v) in water (0.1% TFA v/v) over 30 mins at 1.5 mL min^−1 at ambient temperature with detection by both UV absorption at 210 nm and ionization using a Waters 3100 mass detector (ESP mode). Peptide fragments deriving from enzymatic hydrolysis were identified by molecular weight, allowing location of the site of cleavage. Analytical RP-HPLC method: Agilent Polaris C8-A column (4.6×100 mm, 3 micron) eluted with a linear binary gradient of 10-90% MeCN (0.1% TFA v/v) in water (0.1% TFA v/v) over either 10 or 15 mins at 1.5 mL min^−1 at 40° C. with detection by UV absorption at 210 nm. Manual integration (AUC) allowed estimation of remaining intact peptide over the time course of the experiment.

[4] = target: T4, pepsin (Sus scrofa, UniProt P00791); assay: Proteolytic resistance to pepsin (% remaining intact peptide, RP-HPLC AUC); type: in vitro ADME; details: pig, porcine pepsin, 37° C., pH 2.0, read-out: Percentage remaining intact peptide (AUC by RP-HPLC) upon incubation with pepsin; for remaining at 0.5 h: t = 30 min; for remaining at 1 h: t = 1 hr; for remaining at 2 h: t = 2 hr; for remaining at 4 h: t = 4 hr; for remaining at 8 h: t = 8 hr; for remaining at 24 h: t = 24 hr
T4 construct: purchased Sigma P7012
T4 sequence (P00791 60-385): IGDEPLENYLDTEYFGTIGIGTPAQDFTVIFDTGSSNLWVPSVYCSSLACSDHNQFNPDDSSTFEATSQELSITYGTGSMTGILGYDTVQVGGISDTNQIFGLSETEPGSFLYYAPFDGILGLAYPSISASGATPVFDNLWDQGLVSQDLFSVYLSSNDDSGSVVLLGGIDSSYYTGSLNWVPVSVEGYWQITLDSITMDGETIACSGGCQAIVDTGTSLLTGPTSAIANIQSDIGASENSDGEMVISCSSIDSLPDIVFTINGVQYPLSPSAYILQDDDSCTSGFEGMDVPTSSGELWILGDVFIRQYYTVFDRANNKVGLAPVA
Description: Lyophilized porcine […] pepsin (Sigma: P7012) was reconstituted to afford a solution of 200 μg/mL (˜500 units/mL) in assay buffer (0.1 M HCl, pH 2.0) to give the enzyme stock solution. […] Ratio enzyme (units):peptide (μmoles)˜1:6. […] Ratio enzyme (units):peptide (μmoles)˜2:1.
Lyophilized porcine […] pepsin (Sigma: P7012) was reconstituted to 200 μg/mL (˜500 units/mL) in assay buffer (1.0 M HCl, pH 2.0) to give the enzyme stock solution.

[5] = target: T5, GLP-1R (INS1e assay) (Rattus norvegicus, UniProt P32301); assay: INS1e assay, cAMP activity at GLP-1R; type: cell-based; details: mono-lipidated peptides
T5 construct: endogenous in cells; host or cells: INS-1E cells
T5 sequence (P32301 22-463): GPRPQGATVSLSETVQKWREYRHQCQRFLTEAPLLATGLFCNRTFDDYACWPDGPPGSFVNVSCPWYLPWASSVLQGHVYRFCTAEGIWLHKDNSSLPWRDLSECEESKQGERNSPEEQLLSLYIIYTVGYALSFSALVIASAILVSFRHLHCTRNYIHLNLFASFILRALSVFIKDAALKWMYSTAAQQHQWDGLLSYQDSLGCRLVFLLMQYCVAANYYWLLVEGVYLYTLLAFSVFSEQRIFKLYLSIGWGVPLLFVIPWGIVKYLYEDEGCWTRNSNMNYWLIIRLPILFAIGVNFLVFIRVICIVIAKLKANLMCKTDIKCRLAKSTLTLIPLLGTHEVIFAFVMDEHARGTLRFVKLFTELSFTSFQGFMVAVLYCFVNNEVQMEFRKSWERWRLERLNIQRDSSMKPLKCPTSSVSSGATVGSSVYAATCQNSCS
In short: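 It pairs cAMP-d2 acceptor with anti-cAMP cryptate donor, both prepared 1/20 in conjugate/lysis buffer, applied as a two-step protocol.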

[6] = target: T6, trypsin (Sus scrofa, UniProt P00761); assay: Proteolytic resistance to trypsin (% remaining intact peptide, RP-HPLC AUC); type: in vitro ADME; details: pig, porcine pancreatic trypsin, 37° C., pH 7.8, read-out: Percentage remaining intact peptide (AUC by RP-HPLC) upon incubation with trypsin; for remaining at 0.5 h: t = 30 min; for remaining at 1 h: t = 1 hr; for remaining at 2 h: t = 2 hr; for remaining at 4 h: t = 4 hr; for remaining at 8 h: t = 8 hr; for remaining at 24 h: t = 24 hr
T6 construct: purchased Sigma T7409
T6 sequence (P00761 9-231): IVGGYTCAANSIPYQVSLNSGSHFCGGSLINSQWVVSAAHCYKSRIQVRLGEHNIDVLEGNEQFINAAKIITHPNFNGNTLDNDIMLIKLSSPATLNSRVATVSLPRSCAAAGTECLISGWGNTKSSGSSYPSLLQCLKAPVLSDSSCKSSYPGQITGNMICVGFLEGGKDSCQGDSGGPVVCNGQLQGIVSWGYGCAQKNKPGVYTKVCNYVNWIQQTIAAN
Description: Ratio enzyme (units):peptide (μmoles)˜1:11. […] Ratio enzyme (units):peptide (μmoles)˜1.2:1.

[7] = target: T7, human glucose-dependent insulinotropic peptide receptor (GIPR) (Homo sapiens, UniProt P48546); assay: cAMP assay, human GIPR cells; type: cell-based; details: cAMP assay
T7 construct: expressed in transfected cells
T7 sequence (P48546 22-466): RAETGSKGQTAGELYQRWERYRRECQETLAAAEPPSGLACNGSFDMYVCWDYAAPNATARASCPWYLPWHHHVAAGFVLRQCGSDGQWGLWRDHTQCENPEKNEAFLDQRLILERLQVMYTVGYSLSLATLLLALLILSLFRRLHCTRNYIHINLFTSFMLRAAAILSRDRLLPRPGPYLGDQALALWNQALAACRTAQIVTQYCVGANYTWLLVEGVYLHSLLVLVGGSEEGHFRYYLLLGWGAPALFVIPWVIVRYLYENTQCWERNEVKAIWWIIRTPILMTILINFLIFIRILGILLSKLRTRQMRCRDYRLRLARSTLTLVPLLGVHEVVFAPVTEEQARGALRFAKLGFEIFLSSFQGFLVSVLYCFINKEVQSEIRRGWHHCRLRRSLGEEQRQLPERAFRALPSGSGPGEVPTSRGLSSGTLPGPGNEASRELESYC
In short: as §1

[8] = cAMP assay, first determination (n1), read-out: Primary assay EC50 GLP-1R n1
[9] = cAMP assay, second determination (n2), read-out: Primary assay EC50 GLP-1R n2
[10] = mean of n1 and n2, read-out: Mean pM GLP-1R
[11] = first determination (n1), read-out: Primary assay EC50 Gluc-R (n1)
[12] = second determination (n2), read-out: Primary assay EC50 Gluc-R (n2)
[13] = mean of n1 and n2, read-out: INS1e assay EC50 Mean pM GLP-1R
[14] = replicate n1, read-out: INS1e assay EC50 GLP-1R n1
[15] = replicate n2, read-out: INS1e assay EC50 GLP-1R n2
[16] = first determination (n1), read-out: Primary assay EC50 GIP-R (n1)
[17] = second determination (n2), read-out: Primary assay EC50 GIP-R (n2)

Structure (SMILES)	EC50 [1, 8]	EC50 [1, 9]	EC50 [1, 10]	EC50 [2, 11]	EC50 [2, 12]	remaining at 0.5 h [3]	remaining at 1 h [3]	remaining at 2 h [3]	remaining at 4 h [3]	remaining at 8 h [3]	remaining at 24 h [3]	Percentage remaining peptide (AUC at specified time-point by RP-HPLC) upon incubation with neprilysin, t = 0 [3]	remaining at 0.5 h [4]	remaining at 1 h [4]	remaining at 2 h [4]	remaining at 4 h [4]	remaining at 8 h [4]	remaining at 24 h [4]	EC50 [5, 13]	EC50 [5, 14]	also measured
CC[C@H](C)[C@H](NC(=O)[C@H](Cc1ccccc1)NC(=O)[C@H](CCC(=O)O)NC(=O)[C@H](CCCCNC(=O)COCCOCCNC(=O)COCCOCCNC(=O)CC[C@H](NC(=O)CCCCCCCCCCCCCCCCC(=O)O)C(=O)O)NC(=O)[C@H](C)NC(=O)[C@H](C)NC(=O)[C@H](CCC(=O)O)NC(=O)CNC(=O)[C@H](CCC(=O)O)NC(=O)[C@H](CC(C)C)NC(=O)[C@](C)(Cc1ccccc1)NC(=O)[C@H](CO)NC(=O)[C@](C)(CO)NC(=O)[C@@H](NC(=O)[C@H](CC(=O)O)NC(=O)[C@H](CO)NC(=O)[C@@H](NC(=O)[C@](C)(Cc1ccccc1)NC(=O)[C@H](CO)NC(=O)CNC(=O)[C@H](CCC(=O)O)NC(=O)C(C)(C)NC(=O)[C@@H](N)Cc1c[nH]cn1)[C@@H](C)O)C(C)C)C(=O)N[C@@H](C)C(=O)N[C@@](C)(Cc1ccccc1)C(=O)N[C@H](C(=O)N[C@H](C(=O)N[C@@](C)(CCCCN)C(=O)NCC(=O)NCC(N)=O)C(C)C)C(C)C [compound 48]	3.9 pM	8.2 pM	6.1 pM	≥ 26000 pM	≥ 26000 pM	96.8%	96.5%	93%	93.9%	89.5%	90%	100%	89.1%	80.8%	71.4%	60.6%	45.9%	9.4%	800 pM	729 pM	EC50 [5, 15]: 871 pM; remaining at 0.5 h [6]: 93%; remaining at 1 h [6]: 89.2%; remaining at 2 h [6]: 83.5%; remaining at 4 h [6]: 75.6%; remaining at 8 h [6]: 68.9%; remaining at 24 h [6]: 56.5%; EC50 [7, 16]: ≥ 26000 pM; EC50 [7, 17]: ≥ 26000 pM
CC[C@H](C)[C@H](NC(=O)[C@H](Cc1ccccc1)NC(=O)[C@H](CCC(=O)O)NC(=O)[C@](C)(CCCCN)NC(=O)[C@H](C)NC(=O)[C@H](C)NC(=O)[C@H](CCC(=O)O)NC(=O)CNC(=O)[C@H](CCC(=O)O)NC(=O)[C@H](CC(C)C)NC(=O)[C@](C)(Cc1ccccc1)NC(=O)[C@H](CO)NC(=O)[C@](C)(CO)NC(=O)[C@@H](NC(=O)[C@H](CC(=O)O)NC(=O)[C@H](CO)NC(=O)[C@@H](NC(=O)[C@](C)(Cc1ccccc1)NC(=O)[C@H](CO)NC(=O)CNC(=O)[C@H](CCC(=O)O)NC(=O)C(C)(C)NC(=O)[C@@H](N)Cc1c[nH]cn1)[C@@H](C)O)C(C)C)C(=O)N[C@@H](CCCCNC(=O)COCCOCCNC(=O)COCCOCCNC(=O)CC[C@H](NC(=O)CCCCCCCCCCCCCCCCC(=O)O)C(=O)O)C(=O)N[C@@H](Cc1c[nH]c2ccccc12)C(=O)N[C@H](C(=O)N[C@H](C(=O)N[C@@H](CCC(=O)O)C(=O)NCC(=O)NCC(N)=O)C(C)C)C(C)C [compound 68] (H-H[Aib]EGS[αMeF]TSDV[αMeS]S[αMeF]LEGEAA[αMeK]EFIK([AEEA-AEEA-γGlu-C18 diacid])WVVEGG-NH2; N-terminus assumed)	22.1 pM	15.5 pM	18.8 pM	≥ 25000 pM	≥ 25000 pM	97.4%	95.4%	96.4%	95.4%	93.9%	94.9%	100%	96.5%	94.7%	92.2%	88.2%	86%	85.3%	3780 pM	2690 pM	EC50 [5, 15]: 4870 pM; remaining at 0.5 h [6]: 92.3%; remaining at 1 h [6]: 86.2%; remaining at 2 h [6]: 76.8%; remaining at 4 h [6]: 48.6%; remaining at 8 h [6]: 39.8%; remaining at 24 h [6]: 27.4%; EC50 [7, 16]: ≥ 25000 pM; EC50 [7, 17]: ≥ 25000 pM
